Results reported in paper PMC7673559 (2020).

Legend:
[1] = system: T7 (DNA, G4) TGGGTTGGGTTGGGTTGGGT; test: X-ray crystallography, 2.34 Å; settings: 20 mM K+; annealed in 10 mM lithium cacodylate pH 7.2; 5'-5' GQ dimer, NMM on 3' G-quartet
[2] = system: T7 (DNA, G4) TGGGTTGGGTTGGGTTGGGT; test: UV-vis titration, SVD, direct fit; settings: 5 mM K+, 95 mM Li+; 10 mM lithium cacodylate pH 7.2; 4.3 μM NMM titrated with DNA
[3] = system: T7 (DNA, G4) TGGGTTGGGTTGGGTTGGGT; test: CD melting at 262 nm; settings: 5 mM K+, 95 mM Li+; 10 mM lithium cacodylate pH 7.2; ~5 μM DNA, 2 eq. NMM
[4] = system: T1 (DNA, G4) GGGTTGGGTTGGGTTGGG; test: CD melting at 262 nm; settings: 5 mM K+, 95 mM Li+; 10 mM lithium cacodylate pH 7.2; ~5 μM DNA, 2 eq. NMM
[5] = system: T1 (DNA, G4) GGGTTGGGTTGGGTTGGG; test: X-ray crystallography, 2.39 Å; settings: 20 mM K+; annealed in 10 mM lithium cacodylate pH 7.2; 5'-5' GQ dimer, NMM on 3' G-quartet
[6] = system: T8 (DNA, G4) CGGGTTGGGTTGGGTTGGGG; test: CD melting at 262 nm; settings: 5 mM K+, 95 mM Li+; 10 mM lithium cacodylate pH 7.2; ~5 μM DNA, 2 eq. NMM

Compound: CCc1c(C)c2cc3nc(cc4nc(cc5c(CC)c(C)c(cc1[nH]2)n5C)C(C)=C4CCC(=O)O)C(CCC(=O)O)=C3C
- binding [1]: yes
- Ka [2]: 18 ± 7 µM⁻¹
- ΔTm [3]: 19.9 ± 0.4 °C
- ΔTm [4]: 20. ± 1 °C
- binding [5]: yes
- ΔTm [6]: 17.0 ± 0.5 °C
